In paper PMC5813016 (Nature Communications, 2018):
“Also recorded” adds a separate entry of the source. One block for each compound: values may come before it.

Legend:
[1] = test system: D1R in rat striatal neurons; assay: D1R desensitization in primary rat striatal neurons (cAMP after SKF-81297 challenge); assay type: cell-based; settings: rat striatal neurons pretreated 120 min with 10 μM agonist
Description: Striatal neurons were chosen for the desensitization studies because they express endogenous D1 receptors and are a physiologically relevant tissue for examining neurotransmitter receptor desensitization in vitro. […] Both hemispheres of the striatum were microdissected from the embryonic rat brains and placed into HBSS. All isolated tissue was combined and washed 1× with HBSS, followed by trypsinization using a 0.05% trypsin-EDTA solution for 15 min at 37 °C. […] The cell suspension was added to the top of 5 ml complete MEM media with 1 ml of 100% FBS serum at bottom of a 15 ml tube and centrifuged at 1450 rpm for 5 min. The […] and diluted 10-20× in complete MEM and cell density determined. Cells were plated at a density of 35,000 cells/well in poly-ornithine/laminin coated 96 well plates (Biocoat, BD Falcon) and cultured in Neurobasal media supplemented with B27, 1× Glutamax, and penicillin/streptomycin (100 U/mL) (all from Invitrogen) at 37 °C in 5% CO2 for 14-16 days prior to assay. […] After the pretreatment, cells were washed twice at 5 min intervals with 250 μl/well fresh Neurobasal media. […] The concentration of cAMP (nM) from treated wells was interpolated from a cAMP standard curve by non-linear regression least squares analysis using Graphpad Prism 5.02. […] The percent desensitization was calculated as the percent decrease in cAMP relative to vehicle control. Statistical differences were compared by a one-way ANOVA with Dunnett's post-test analysis using Graphpad Prism 5.02.

[2] = target: human dopamine D1 receptor (hD1R) (Homo sapiens, UniProt P21728); assay: hD1R cAMP HTRF assay (stable HEK293); settings: percent of maximum response of 5 µM dopamine
[3] = Rat pharmacokinetic studies; assay type: in vivo, Wistar Hannover rat
Description: Rat pharmacokinetic studies were conducted at BioDuro, Pharmaceutical Product Development, Inc. (Shanghai, China). Wistar Hannover rats (227–293 gram weight) were obtained from Vital River Laboratories (China). All animal studies were conducted in accordance with the Pfizer Institutional Animal Care and Use Committee (Groton, CT), using protocols approved by Pfizer PDM′s Global BA Committee (2009). Jugular vein-cannulated male Wistar Hanover rats were maintained on a 12 h light/dark cycle for a minimum of three days in a temperature-controlled and humidity-controlled environment with free access to food and water. Individual animals (n = 2 or 3 per dose/route) were administered a single dose of compound by either intravenous injection via tail vein or oral gavage based on body weight. […] The PF-6142 intravenous dose (1 mg/kg) was formulated in saline acidified with three molar equivalents of 1 N hydrochloric acid and the PF-6142 oral dose (5 mg/kg) was formulated in 0.5% methylcellulose. […] Formulations were agitated until all of the test article was dissolved. […] From each rat, serial blood samples were collected via jugular vein cannula prior to dose administration and at the following time points post-dose: 0.033 (i.v. only), 0.083, 0.25, 0.5, 1, 2, 4, 7, and 24 h. […] All blood samples were placed on wet ice until centrifugation. Following centrifugation, the plasma was transferred to polypropylene tubes and stored frozen at either −20 °C to −80 °C until analysis. Urine was collected from all intravenous-dosed rats into collection tubes from the collection intervals of 0–7 h and 7–24 h post-dose. […] All urine samples were stored at −80 °C until analysis. All samples were processed for quantitation of compound concentrations using protein precipitation methodology followed by analysis using liquid chromatography-tandem mass spectrometry (LC-MS/MS). […] The pharmacokinetic parameters (including those in Supplementary Table 3) were computed by non-compartmental analysis[61] using Watson Bioanalytical LIMS version 7.4 (Thermo Fischer Scientific, CA).

[4] = target: human D3R (Homo sapiens, UniProt P35462); assay: Human D3R radioligand binding ([3H]-7-OH-DPAT, CHO)
[5] = test system: human D1R / β-arrestin2-GFP in U2OS cells; assay: β-arrestin2-GFP membrane recruitment, TIRFM, U2OS cells; assay type: cell-based; settings: U2OS cells expressing human D1R, 1 μM agonist, 10 min
Description: This stable U2OS cell line was generated, obtained and licensed from Professor Marc G. Caron, Duke University, Durham, NC, USA. […] The U2OS cells were cultured under antibiotic selection in DMEM (Invitrogen) containing 25 mM glucose and 4 mM L-glutamine supplemented with 10% dialyzed fetal bovine serum, […] Geneticin, […] Zeocin, and 100 U/ml penicillin/streptomycin (all from Invitrogen) and incubated at 37 °C in 5% CO2. Cells from passage four through ten were used in these experiments. Cells were grown in 35 mm glass bottomed imaging dishes (Mattek Corp). Cells were incubated for 1 h in serum free media (SFM) and subsequently treated for 10 min at 37 °C with 0.01% DMSO (control) or 1 μM of all test compounds dissolved in SFM followed by immediate fixation on ice with a 4% paraformaldehyde/1× phosphate buffered saline solution.
TIRFM was used to visualize proteins at the plasma membrane of cells such as D1 receptors and recruited β-arrestin-GFP[65]. All images were captured using a Zeiss PS.1 Elyra Superresolution fluorescence microscope equipped with TIRF module.
Custom image analysis scripts were developed to automatically identify and quantify β-arrestin membrane recruitment. We employed standard methods of image processing based on grayscale morphology. First 16bit images were transformed to 8bit range via square root transformation to improve identification of punctate structure of varying intensity. Images were smoothed with small Gaussian kernel to eliminate noise (h = 2px, σ = 1). At the next step images were transformed via tophat operation with large kernel (radius 30px) to eliminate non-uniformity of the background. Second tophat transform with small kernel (radius 5px) was used to enhance signal and eliminate local intensity variation around puncta. This image was then processed to find locations of puncta intensity peaks via non-maximal suppression filter with 3px radius of region considered in non-maximal suppression, and threshold 20. Finally the boundaries of puncta were identified using marker controlled watershed operation with peaks serving as foreground markers. After having identified each puncta, we used 8bit transformed but otherwise non-processed images to quantify intensity and area of each region. We focused on two endpoints, number of puncta per cell and integrated intensity of puncta per cell (sum of the products of average intensity and area of each puncta within a cell), both adjusted for cell area as described below. The boundaries of the cells were identified via Otsu's method, followed by hole filling and identification of the largest closely connected component. The area of the foreground was used as normalization factor to account for occasional differences in cell areas in the field of view. Specifically all foreground areas across experiment were pooled and divided by the median of the areas to obtain normalization factor for each image. This factor was then used for adjustment for number of puncta and integrated intensity of puncta, which scale with the number of cells. Puncta outside of cell boundaries were filtered out.
The results were aggregated over batches of cells recorded at the same time, with three or more batches per condition, approximately 20 cells per well. The statistical significance was tested via one-way ANOVA with treatment as a factor. To address the problem of severe inequality of variances across the treatment groups assessed via Bartlett′s test, we used square root transformation. All statistical results for the number of puncta per cell and integrated intensity of puncta per cell are presented for transformed variables. Significant ANOVA findings were followed with post-hoc comparisons with Dunnett′s procedure in case of comparisons with the control group or with false discover rate adjustment[69] otherwise. All statistical tests were performed two-tailed at a 5% level of significance.

[6] = target: human dopamine D5 receptor (hD5R) (Homo sapiens, UniProt P21918); assay: hD5R cAMP HTRF assay (stable HEK293); settings: for Efficacy hD5R cAMP: percent of maximum response of 5 µM dopamine
[7] = test system: cynomolgus monkeys; assay: Monkey spontaneous eye blink rate (EBR); assay type: in vivo, Macaca fasicularis; settings: monkey; data not shown
Description: Increase in spontaneous EBR has been previously shown with D1 agonists and partial agonists. To confirm the specificity of the response in our particular assay set up for D1 activation, we verified that the D1 receptor antagonist SCH-39166 fully blocks the increased eye blink response of non-catechol full D1 agonist that is a close structural analog of the compounds in this paper (data not shown). All procedures involving animals were conducted with approval of the Pfizer Institutional Animal Care and Use Committee (Groton, CT) and compliant with the regulations and standards of the Animal Welfare Act (9CFR2, 9CFR3). Three male Cynomolgus macaques (Macaca fasicularis) of Mauritian origin, 7–10 years old, SPF for CHV-1, SIV, STLV1 and SRV 1, 2, 5 were used. Animals were exposed to 12 h light/dark cycle (lights on 6:00 AM – 6:00 PM). […] EBRS were recorded from chaired animals for 2 min at 10 min intervals by a trained observer through direct visual observation who was blinded to experimental conditions. Animals were chaired at approximately 7:30 AM. After vehicle or compound administration, eye blinks were recorded during the following intervals: from 10 to 50 min (0–1 h), 130 to 170 min (2–3 h), 310 to 350 min (5–6 h). Animals were returned to their home cages between two consecutive sessions and after the final recording of the day. Blood samples (1 ml) were collected from the femoral vein at 1 and 5 h after the first dose to quantitate plasma compound levels. […] A77636 was dissolved in 0.9% sterile saline, formulated fresh prior to administration, and given once per day for 3 days. […] Vehicle control was administered on day 0.
EBR data were first converted to blinks per minute. EBR were averaged by binning into 3 periods: Period 1 (0–1 h after the first dose) EBR = mean of 10, 20, 30, 40, and 50 min recordings; Period 2 (2–3 h after the first dose) EBR = mean of 130, 140, 150, 160, and 170 min recordings; Period 3 (5–6 h after the first dose) EBR = mean of 310, 320, 330, 340, and 350 min recordings. For Fig. 5c EBR data were averaged by binning data from periods 1 through 3 as daily EBR. Data from each animal was then normalized to their respective Day 1 EBR and expressed as percent of Day 1 EBR for each drug. EBR data were analyzed with SAS® 9.4 (SAS Institute Inc. Cary, NC) using a mixed linear model (Mixed Procedure) for repeated measures. The model included treatment, day, time period, and their interactions as fixed effects, and animal and animal-by-day interaction as random effects. A first order autoregressive model was used for longitudinal covariance structure. Differences between least squares means across days, overall and for each time period, were tested and adjusted for multiple comparisons via Tukey method. […]

[8] = target: human D1R (Homo sapiens, UniProt P21728); assay: Human D1R radioligand binding ([3H]-SCH23390, LTK cells)
[9] = target: human D2R (hD2R) (Homo sapiens, UniProt P14416); assay: Human D2R radioligand binding ([3H]-spiperone, CHO)
[10] = target: human D5R (Homo sapiens, UniProt P21918); assay: Human D5R radioligand binding ([3H]-SCH23390, CHEM-1)
Chain of human D5R (P21918 whole entry): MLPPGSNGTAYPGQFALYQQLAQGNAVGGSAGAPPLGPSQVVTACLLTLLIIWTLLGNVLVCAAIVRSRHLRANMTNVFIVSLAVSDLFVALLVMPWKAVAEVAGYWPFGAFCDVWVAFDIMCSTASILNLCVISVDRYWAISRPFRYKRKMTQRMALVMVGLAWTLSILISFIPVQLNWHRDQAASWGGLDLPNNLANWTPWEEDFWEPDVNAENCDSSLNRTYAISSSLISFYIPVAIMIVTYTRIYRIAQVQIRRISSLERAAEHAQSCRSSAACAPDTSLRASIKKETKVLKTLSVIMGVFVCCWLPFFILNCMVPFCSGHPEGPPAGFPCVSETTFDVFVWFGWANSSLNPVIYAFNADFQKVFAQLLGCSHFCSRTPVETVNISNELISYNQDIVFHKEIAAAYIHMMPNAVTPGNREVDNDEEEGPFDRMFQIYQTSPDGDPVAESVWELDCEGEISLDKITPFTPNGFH

Chain of human D3R (P35462 whole entry): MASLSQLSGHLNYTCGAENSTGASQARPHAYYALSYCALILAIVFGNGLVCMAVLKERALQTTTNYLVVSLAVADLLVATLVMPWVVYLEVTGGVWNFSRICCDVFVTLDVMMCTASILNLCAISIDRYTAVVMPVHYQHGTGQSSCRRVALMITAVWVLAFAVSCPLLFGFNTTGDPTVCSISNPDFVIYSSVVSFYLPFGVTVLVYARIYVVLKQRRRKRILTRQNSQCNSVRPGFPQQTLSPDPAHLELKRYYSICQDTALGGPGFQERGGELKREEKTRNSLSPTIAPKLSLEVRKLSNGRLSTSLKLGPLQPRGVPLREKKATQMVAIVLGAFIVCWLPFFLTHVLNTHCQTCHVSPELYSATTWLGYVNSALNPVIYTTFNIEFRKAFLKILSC
Chain of human dopamine D5 receptor (hD5R) (P21918 whole entry): as the sequence (P21918 whole entry) above
Chain of human dopamine D1 receptor (hD1R) (P21728 whole entry): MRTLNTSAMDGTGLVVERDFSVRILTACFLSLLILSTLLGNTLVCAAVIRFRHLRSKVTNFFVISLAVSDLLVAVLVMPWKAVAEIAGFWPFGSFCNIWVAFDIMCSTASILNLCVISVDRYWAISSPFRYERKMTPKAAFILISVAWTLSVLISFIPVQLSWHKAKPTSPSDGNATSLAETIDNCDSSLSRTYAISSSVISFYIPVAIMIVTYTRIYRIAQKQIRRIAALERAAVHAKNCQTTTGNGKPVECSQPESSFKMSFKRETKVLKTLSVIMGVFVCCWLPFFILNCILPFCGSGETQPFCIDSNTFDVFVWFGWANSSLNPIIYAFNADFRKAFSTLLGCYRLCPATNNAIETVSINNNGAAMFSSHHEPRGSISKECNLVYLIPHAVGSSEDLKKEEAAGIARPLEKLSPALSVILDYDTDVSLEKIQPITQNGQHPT
Chain of human D1R (P21728 whole entry): as above
Chain of human D2R (hD2R) (P14416 whole entry): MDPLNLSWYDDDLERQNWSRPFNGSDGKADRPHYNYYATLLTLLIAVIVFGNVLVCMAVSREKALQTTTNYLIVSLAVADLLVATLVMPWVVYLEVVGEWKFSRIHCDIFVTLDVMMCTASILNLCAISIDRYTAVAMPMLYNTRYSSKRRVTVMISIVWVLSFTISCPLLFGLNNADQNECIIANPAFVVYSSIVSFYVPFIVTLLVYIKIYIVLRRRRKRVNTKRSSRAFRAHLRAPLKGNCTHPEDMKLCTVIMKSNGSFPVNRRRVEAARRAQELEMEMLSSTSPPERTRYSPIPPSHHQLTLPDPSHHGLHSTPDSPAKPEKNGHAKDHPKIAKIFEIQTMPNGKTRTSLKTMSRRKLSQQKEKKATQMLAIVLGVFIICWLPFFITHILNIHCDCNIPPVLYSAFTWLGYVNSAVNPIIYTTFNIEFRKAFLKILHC

SMILES: Oc1cc2c(cc1O)C(c1ccccc1)CNCC2 (stereo not shown) [SKF-38393, reference compound]
percent desensitization of D1R cAMP response to 1 μM SKF-81297 challenge [1]: 40–60% | Efficacy hD1R cAMP [2]: 41±3 | CL ([3]; intravenous (1 mg/kg; PF-2334 0.1 mg/kg)): rapid clearance | clearance ([3]; male, Wistar Hannover, plasma, iv): 245 mL/min/kg | Vd ([3]; male, Wistar Hannover, plasma, iv, read-out: Vdss): 3.9 L/kg | bioavailability ([3]; male, Wistar Hannover, plasma, oral bioavailability): 9.5% | half-life ([3]; male, Wistar Hannover, plasma, read-out: t½ (converted)): 24 min | F ([3]; oral bioavailability): low oral bioavailability | Ki [4]: > 671 nM

SMILES: NCCc1ccc(O)c(O)c1 [Dopamine, reference compound]
β-arrestin-GFP recruitment to the plasma membrane (TIRFM) [5]: membrane associated β-arrestin puncta appeared rapidly; also recorded: significantly higher signal

Efficacy hD5R cAMP [6]: 100±1
SMILES: Oc1cc2c(c(Cl)c1O)CCNCC2c1ccccc1 (stereo not shown) [SKF-81297, reference compound]
β-arrestin-GFP recruitment to the plasma membrane (TIRFM) [5]: membrane associated β-arrestin puncta appeared rapidly

SMILES: CN1CCc2cc(Cl)c(O)cc2[C@H]2c3ccccc3CC[C@@H]21 [SCH-39166]
blockade of EBR increase induced by a non-catechol full D1 agonist [7]: fully blocks

SMILES: Cn1nccc1-c1ccc(Oc2nccc3occc23)cc1 [PF-4211]
EC50 [6]: 1780 ± 144 nM | Efficacy hD5R cAMP [6]: 53±1 | Ki [8]: 3.14 ± 0.335 µM | Ki [9]: > 4.28 µM | Ki [4]: > 671 nM | Ki [10]: 1890 ± 508 nM

Efficacy hD1R cAMP [2]: 100±2 | Ki [4]: 387 ± 21 nM
SMILES: Oc1cc2c(cc1O)[C@H]1c3ccccc3CN[C@@H]1CC2 (racemic) [Dihydrexidine, reference compound]
β-arrestin-GFP recruitment to the plasma membrane (TIRFM) [5]: significantly higher signal
